Experimental data: US20170295783A1, “COMPOSITIONS AND METHODS TO SELECTIVELY CONTROL SPECIES” (STEPHEN F. AUSTIN STATE UNIVERSITY, priority 2014, published 2017)

Experiments:
[1] = tested on: human tumor cells or normal cells; conditions: Li, et al., 2013; cited from earlier work
Giant Salvinia = assay: Leaf-blade droplet bioassay on giant salvinia; assay type: in vivo, Salvinia molesta; conditions: for Activity against Giant Salvinia: 8 μL of 1% solution on lower leaf surface
Method: The three plants in the first container served as control without any treatment, three plants in the second container were treated with 1% DMSO, three plants in the third container were treated with 5% DMSO, three plants in the fourth container were treated with 0.5% Dyne-Amic®, and the plants in each of the other four containers were treated with each of the four testing isolates, respectively. For each of the three plant in the 0.5% Dyne-Amic® treatment, 8 μL of 0.5% Dyne-Amic® was applied on the lower surface of each of the two mature leaf blades close to the terminal bud by pipet and 8 μL of 0.5% Dyne-Amic® was applied on the upper surface (with trichomes) of each of the two other mature leaf blades close to the terminal bud by pipet. For all three plants in each of the DMSO or testing isolates treatment containers, 8 μL of each experimental solution was applied on the lower surface of each of the two mature leaf blades close to the terminal bud by pipet.

A. palmeri = assay: Leaf droplet bioassay on A. palmeri seedlings; assay type: in vivo, Amaranthus palmeri; conditions: 10 μL 0.5% glyphosate
Method: Bioassays: The experimental plants were 3-week-old A. palmeri seedlings germinated from the seeds collected from the above described glyphosate-resistant plants. The seedlings were grown in pots with Miracle Grow Potting Mix soil in the greenhouse (30° C. during the day time and 20° C. at night). The intact seedling plants of 3-week old Q. texana and 2-month-old L. styraciflua grown in pots in greenhouse were also tested in this experiment. […] The leaf surfaces of the experimental plants were checked daily for two weeks by a ×60 portable microscope linked to an iPhone™.

T. sebifera seedlings = assay: Droplet test and foliar spray of fractions on Chinese tallow seedlings; set-up: species or system Triadica sebifera; conditions: in vivo
Source text: The leaf surfaces of the experimental plants were checked daily for two weeks by a ×60 portable microscope linked to an iPhone™.

CC(=O)/C=C/[C@@]1(O)C(C)=CC(=O)CC1(C)C [compound 4, Dehydrovomifoliol]
cytotoxicity against human tumor cells or normal cells [1]: did not show any cytotoxicity
Activity against Giant Salvinia (Giant Salvinia): No activity
leaf injury during the two weeks of observation (Giant Salvinia; 8 μL/leaf, 1% solution): no or slight injury

CC(=O)/C=C/[C@H]1C(C)=C[C@H](O)CC1(C)C
cytotoxicity against human tumor cells or normal cells [1]: did not show any cytotoxicity

CC(=O)/C=C/[C@H]1C(C)=C[C@H](O)CC1(C)C [compound 2, (3R,6R,7E)-3-hydroxy-4,7-megastigmadien-9-one]
Activity against Giant Salvinia (Giant Salvinia): Weak activity
leaf injury during the two weeks of observation (Giant Salvinia; 8 μL/leaf, 1% solution): no or slight injury

CC(=O)/C=C/[C@@]12O[C@]1(C)C[C@@H](O)CC2(C)C [compound 3, Annuionone D]
cytotoxicity against human tumor cells or normal cells [1]: did not show any cytotoxicity
Activity against Giant Salvinia (Giant Salvinia): No activity
leaf injury during the two weeks of observation (Giant Salvinia; 8 μL/leaf, 1% solution): no or slight injury

O=C(O)CNCP(=O)(O)O [glyphosate]
leaf injury (A. palmeri): no injury

COc1c(OC)c(OC)c2oc(=O)ccc2c1OC [5,6,7,8-Tetramethoxycoumarin, 5,6,7,8-tetramethoxycoumarin]
endocidal activity in the droplet test (T. sebifera seedlings): showed endocidal activity

CC(=O)/C=C/C1=C(C)C[C@@H](O)CC1(C)C [compound 1, (+)-3-Hydroxy-β-ionone]
cytotoxicity against human tumor cells or normal cells [1]: did not show any cytotoxicity
Activity against Giant Salvinia (Giant Salvinia): Potent activity
leaves dead by the end of experiment (of six) (Giant Salvinia; 8 μL/leaf, 1% solution): two leaves were dead
time to significant injury of the six treated leaf blades (Giant Salvinia; 8 μL/leaf, 1% solution, lower surface): ≤ 12 h
time to death of lower surface contact tissues (FIG. 1) (Giant Salvinia; applied on the lower surface of the leaf blade): ≤ 12 h
